Measured values: ChEMBL document CHEMBL1136204, “Thymidine and thymidine-5'-O-monophosphate analogues as inhibitors of Mycobacterium tuberculosis thymidylate kinase” (Bioorg Med Chem Lett, 2003)

Legend:
[1] = target: T1, Thymidylate kinase (Mycobacterium tuberculosis, UniProt P9WKE1); experiment: Inhibitory activity against thymidine monophosphate kinase (TMPK) in Mycobacterium tuberculosis
T1 sequence (P9WKE1 whole entry): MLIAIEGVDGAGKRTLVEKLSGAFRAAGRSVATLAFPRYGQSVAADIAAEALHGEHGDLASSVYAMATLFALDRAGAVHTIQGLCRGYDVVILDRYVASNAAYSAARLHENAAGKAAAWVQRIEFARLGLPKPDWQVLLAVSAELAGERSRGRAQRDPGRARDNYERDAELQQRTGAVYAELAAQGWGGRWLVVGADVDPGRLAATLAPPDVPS

[2] = target: T1, Thymidylate kinase; experiment: Inhibitory activity against thymidine monophosphate kinase (TMPKmt) in Mycobacterium tuberculosis using HPLC chromatography test

SMILES	Ki [1] [µM]	Ki [2] [µM]
Cc1cn([C@@H]2O[C@H](COP(=O)(O)O)[C@@H](O)[C@H]2N)c(=O)[nH]c1=O	120	–
Cc1cn([C@H]2C[C@H](O)[C@@H](CO)O2)c(=O)[nH]c1=O [DOXRIBTIMINE]	715	–
Cc1cn([C@@H]2O[C@H](CO)[C@@H](O)[C@@H]2O)c(=O)[nH]c1=O	238	–
O=c1[nH]c(=O)n([C@H]2C[C@H](O)[C@@H](COP(=O)(O)O)O2)cc1-c1cccs1	270	–
O=c1[nH]c(=O)n([C@H]2C[C@H](O)[C@@H](COP(=O)(O)O)O2)cc1Cc1ccccc1	28	–
Cc1cn([C@@H]2O[C@H](CI)[C@@H](N=[N+]=[N-])[C@H]2O)c(=O)[nH]c1=O	490	–
Cc1cn([C@H]2C[C@H](O)[C@@H](CN=[N+]=[N-])O2)c(=O)[nH]c1=O	7	–
Cc1cn([C@@H]2O[C@H](CO)[C@@H](O)[C@H]2F)c(=O)[nH]c1=O	122	–
Cc1cn([C@@H]2O[C@H](COP(=O)(O)O)[C@@H](N)[C@H]2O)c(=O)[nH]c1=O	45	–
C[C@H]1O[C@@H](n2cc(F)c(=O)[nH]c2=O)[C@H](O)[C@@H]1O [DOXIFLURIDINE]	560	–
Cc1cn([C@@H]2O[C@H](C)[C@@H](N)[C@H]2O)c(=O)[nH]c1=O	1900	–
C[C@@H]1CC[C@H](n2cc(Br)c(=O)[nH]c2=O)O1	5	–
Cc1cn([C@@H]2CO[C@H](COP(=O)(O)O)[C@@H](O)C2)c(=O)[nH]c1=O	150	–
Cc1cn([C@H]2C[C@H](O)[C@@H](CN)O2)c(=O)[nH]c1=O	12	–
O=c1[nH]c(=O)n([C@H]2C[C@H](O)[C@@H](CO)O2)cc1C(F)(F)F [TRIFLURIDINE]	97	–
Cc1cn([C@H]2C[C@H](O)[C@@H](COP(=O)(O)OP(=O)(O)OP(=O)(O)OP(=O)(O)OP(=O)(O)OC[C@H]3O[C@@H](n4cnc5c(N)ncnc54)[C@H](O)[C@@H]3O)O2)c(=O)[nH]c1=O	–	30
O=c1[nH]c(=O)n([C@@H]2O[C@H](CO)[C@@H](O)[C@H]2O)cc1F [5-FLUOROURIDINE]	521	–
Cc1cn([C@H]2C[C@H](F)[C@@H](CO)O2)c(=O)[nH]c1=O [ALOVUDINE]	28	–
Cc1cn([C@H]2C[C@H](N)[C@@H](CO)O2)c(=O)[nH]c1=O [3-AMINO- 3-DEOXYTHYMIDINE]	230	–
O=c1[nH]c(=O)n([C@H]2C[C@H](O)[C@@H](COP(=O)(O)O)O2)cc1CO	110	–
CCc1cn([C@H]2C[C@H](O)[C@@H](CO)O2)c(=O)[nH]c1=O [EDOXUDINE]	1140	–
Cc1cn([C@@H]2O[C@H](CO)[C@@H](N=C(N)N)[C@H]2O)c(=O)[nH]c1=O	140	–
O=c1[nH]c(=O)n([C@H]2C[C@H](O)[C@@H](COP(=O)(O)O)O2)cc1-c1ccco1	140	–
CC(=O)NC[C@H]1O[C@@H](n2cc(C)c(=O)[nH]c2=O)C[C@@H]1O	90	–
